The subject of test [1] is human umbilical vein endothelial cells (HUVECs). In words: Growth (Alamar Blue) assay on HUVEC, Example 5. The conditions noted are these: Homo sapiens. It is filed as cell-based. The text has this:
(§1) The methods established and described in detail previously (Goodman and Hahn a; b) were used to measure the effect of combinations of integrin inhibitors and chemotherapeutics on carcinoma cell and human endothelial cell proliferation.
(§2) Points were run in duplicate or in triplicate. Reagent blanks, containing media plus Alamar Blue without cells, were run on each plate. Blank values were subtracted from test values and were routinely 5-10% of uninhibited control values.
(§3) 5.5 Methods of Evaluation and Statistics Chemotherapeutic agents and αv-integrin blockers were serially diluted alone or together (combination therapy). In some assays the chemotherapeutic agent was serially diluted alone or in combination with of alpha-v integrin blocker. Growth inhibition curves were plotted and a shift of the combination therapy curve to lower concentrations in relation to the single agent curves was interpreted as an additional effect, produced by combination versus monotherapy.
(§4) The αv-integrin competitive inhibitor Cilengitide (EMD 121974) was tested alone and in combination with vinorelbine in a serum growth stimulation assay using human carcinoma cells or human umbilical vein endothelial cells (HUVECs). In these assays cells are cultured in serum, or in an endothelial growth stimulation medium (Goodman & Hahn).
On the technique in general: Alamar Blue is a resazurin reagent that responds to reducing activity.

The test system of test [2] is A549. In words: Serum growth stimulation assay on A549 NSCLC cells, Example 5. The test is classed as cell-based, human. Conditions: for EC50: Homo sapiens, NSCLC A549, chemotherapeutic alone or + Cilengitide.
Source text: as §1, §2, §3, §4

The test system of test [3] is A498. The test can be described thus: Cell proliferation assay on A498 renal carcinoma cells. The test is classed as cell-based, human. The conditions noted are these: for EC50: Homo sapiens, Renal A498, chemotherapeutic alone or + Cilengitide.
Source text: as §1, §2, §3, §4
Cilengitide concentration is 2 μM (constant).

Test [4] relates to Detroit 562. The test can be described thus: Cell proliferation assay on SCCHN Detroit 562 cells. It is filed as cell-based, human.
Setting [5] is: in combination with 2 μM Cilengitide.

As for `CC(=O)O[C@H]1C(=O)[C@@]2(C)[C@H]([C@H](OC(=O)c3ccccc3)[C@]3(O)C[C@H](OC(=O)[C@H](O)[C@@H](NC(=O)c4ccccc4)c4ccccc4)C(C)=C1C3(C)C)[C@]1(OC(C)=O)CO[C@@H]1C[C@@H]2O` [Paclitaxel], the IC50 in test [1] (agent alone) is 10 nM; in test [1] (setting [5]) it was 0.05 nM. In addition, the EC50 in test [2] was found to be 8 nM; in test [3], 100 nM.
On to `CCC1=C[C@@H]2CN(C1)Cc1c([nH]c3ccccc13)[C@@](C(=O)OC)(c1cc3c(cc1OC)N(C)[C@H]1[C@@](O)(C(=O)OC)[C@H](OC(C)=O)[C@]4(CC)C=CCN5CC[C@]31[C@@H]54)C2` [Vinorelbine], for which the IC50 in test [1] (agent alone) is 20 nM; in test [1] (setting [5]), 0.8 nM. Besides, the “enhancement of growth inhibition by the presence of cilengitide” value in test [2] (A549), in test [3] (A498) and in test [4] was “synergistically enhanced” in each case. Also, the EC50 in test [2] was 8 nM; in test [3] it was 60 nM.

For orientation: IC50 means the concentration that gives 50% inhibition. One may read the EC50 as the concentration needed to bring the measured effect to its halfway point.
